Results reported in patent US8158621B2, “Methods of treating or preventing autoimmune diseases with 2,4-pyrimidinediamine compounds” (Rigel Pharmaceuticals, Inc., priority 2002, dated 2012).

system: Human Jurkat T-cells (clone N); test: Jurkat T-cell activation (anti-TCR, CD69 upregulation); format: cell-based; conditions: not given
How it was run: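 Jurkat cells in RPMI + 5% FBS preincubated with compound 1 h at 37 °C, then stimulated with anti-TCR C305 at 500 ng/ml for 20 h. CD69 surface expression stained with anti-CD69-APC and read by flow cytometry; IC50 versus solvent-only control.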

Row | Structure (SMILES) | IC50 [µM]
1 | O=C(COc1cccc(Nc2ncc(F)c(Nc3ccc4c(c3)OCCO4)n2)c1)NCCOC(=O)CCCCC1SCC2NC(=O)NC21 (stereo not shown) [Compound R926811] | 1.28
2 | CNC(=O)COc1cc(Nc2ncc(F)c(Nc3ccc4cc[nH]c4c3)n2)ccc1OC [Compound R926752] | 1.73
3 | COc1ccc(Nc2nc(Nc3cccc(OCC(=O)NCC(O)CO)c3)ncc2F)cc1OC (stereo not shown) [Compound R926734] | 11.3
4 | CCOC(=O)COc1ccc(Nc2ncc(C(F)(F)F)c(Nc3ccc(OCC(=O)OCC)cc3)n2)cc1 [Compound R925862] | > 10
5 | CNC(=O)COc1cccc(Nc2ncc(F)c(Nc3ccc(F)c(C(F)(F)F)c3)n2)c1 [Compound R926838] | 10.7
6 | CCOC(=O)COc1cccc(Nc2ncc(C(=O)OCC)c(Nc3ccc4c(c3)OC(F)(F)C(F)(F)O4)n2)c1 [Compound R926799] | > 10
7 | CNC(=O)COc1cccc(Nc2ncc(F)c(Nc3cc(OC)c(Cl)cc3OC)n2)c1 [Compound R926859] | > 10
8 | COC(=O)c1cc2cc(Nc3ncc(F)c(Nc4ccc5[nH]c(C(=O)OC)cc5c4)n3)ccc2[nH]1 [Compound R926593] | 1.28
9 | COC(=O)C(C)Oc1ccc(Nc2ncc(F)c(Nc3ccc(OC(C)C(=O)OC)cc3)n2)cc1 (mixture of isomers) [Compound R926254] | > 10
10 | Oc1cccc(Nc2ccnc(Nc3ccc(OCc4nn[nH]n4)cc3)n2)c1 [Compound R920819] | > 10
11 | CC(C)(CO)NC(=O)COc1cccc(Nc2ncc(F)c(Nc3ccc4c(c3)OCCO4)n2)c1 [Compound R926764] | 2.17
12 | CCOC(=O)COc1ccc(Nc2nc(Nc3ccc(OCC(=O)OCC)cc3)c(NC(=O)NC(=O)CCl)c(C(=O)OCC)n2)cc1 [Compound R926589] | > 10
13 | Cc1ccc(-c2ccccc2)cc1Nc1ncc(F)c(Nc2cc(-c3ccccc3)ccc2C)n1 [Compound R926402] | > 10
14 | CNC(=O)c1cc2cccc(Nc3ncc(F)c(Nc4ccc5c(c4)OCCO5)n3)c2[nH]1 [Compound R926815] | > 10
15 | CC1Sc2ccc(Nc3ncc(F)c(Nc4cccc(O)c4)n3)cc2NC1=O (racemic) [Compound R909263] | 6.2
16 | CNC(=O)COc1cccc(Nc2ncc(F)c(Nc3cc(OC)cc(OC)c3)n2)c1 [Compound R926796] | 4.21
17 | COCOc1ccc(Nc2nc(Nc3cccc(O)c3)ncc2F)c(F)c1 [Compound R926680] | 5.7
18 | CCOC(=O)COc1ccc(Nc2ncc(C#N)c(Nc3ccc(OCC(=O)OCC)cc3)n2)cc1 [Compound R925775] | > 10
19 | Oc1cccc(Nc2nc(Nc3ccc(OCc4nnn[nH]4)cc3)ncc2F)c1 [Compound R920818] | > 10
20 | Cn1nnc(COc2ccc(Nc3nccc(Nc4cccc(O)c4)n3)cc2)n1 [Compound R920910] | 2.38

Other lines, results leading:

Row | IC50 [µM] | Structure (SMILES)
21 | 2.67 | COC(=O)COc1ccc(Nc2ncc(F)c(Nc3ccc(OCC#N)cc3)n2)cc1 [Compound R945053]
22 | 10.5 | CNC(=O)COc1cc(Nc2ncc(F)c(Nc3cccc(O)c3)n2)cc(OCC(=O)NC)c1 [Compound R926930]
23 | 6.01 | O=C(c1cccc(Nc2ncc(F)c(Nc3ccc4cc[nH]c4c3)n2)c1)N1CCOCC1 [Compound R926934]
24 | 3.79 | CON=C(N)COc1ccc(Nc2nc(Nc3ccc4c(c3)OCCO4)ncc2F)cc1 [Compound R945175]
25 | 2.29 | COc1c(C)cc(Nc2nc(Nc3cccc(OCC(=O)N4CCNCC4)c3)ncc2F)cc1C [Compound R945156]
26 | 4.74 | C=CCNC(=O)Oc1cccc(Nc2nc(Nc3cccc(OCC(=O)NC)c3)ncc2F)c1 [Compound R926917]
27 | > 10 | CNC(=O)COc1cccc(Nc2ncc(F)c(Nc3ccc(Cl)c(-c4nc5ccccc5s4)c3)n2)c1 [Compound R926900]
28 | 1.38 | COc1cc(Nc2ncc(F)c(Nc3ccc4c(cnn4C)c3)n2)cc(OC)c1 [Compound R935214]
29 | 4.31 | Cc1nc(COc2cccc(Nc3ncc(F)c(Nc4ccc5c(c4)OCCO5)n3)c2)no1 [Compound R945128]
30 | 2.88 | CNC(=O)COc1ccc(Nc2nc(Nc3ccc4c(c3)OCCO4)ncc2F)cc1 [Compound R945173]
31 | > 10 | CCNC(=O)Oc1cccc(Nc2nc(Nc3cccc(OCC(=O)NC)c3)ncc2F)c1 [Compound R926919]
32 | 5.56 | Cc1cc(Nc2nc(Nc3cccc(OCC(=O)N4CCOCC4)c3)ncc2F)cc(Cl)c1O [Compound R940265]
33 | 5.53 | COC(=O)COc1cc(O)cc(Nc2ncc(F)c(Nc3cccc(O)c3)n2)c1 [Compound R926927]
34 | > 10 | CCOC(=O)COc1cccc(Nc2ncc(F)c(Nc3cc(Cl)c(O)c(Cl)c3)n2)c1 [Compound R950185]
35 | 2.71 | CNC(=O)Cn1ncc2cc(Nc3ncc(F)c(Nc4ccc5c(c4)OCCO5)n3)ccc21 [Compound R935240]
36 | > 10 | CS(=O)(=O)Nc1ccc(Nc2ncc(F)c(Nc3ccc(NS(C)(=O)=O)cc3)n2)cc1 [Compound R950083]
37 | 6.26 | O=C(CNc1cccc(Nc2ncc(F)c(Nc3cccc(NCCO)c3)n2)c1)NCCNCc1ccccc1 [Compound R950235]
38 | 2.27 | OCCOc1ccc(Nc2ncc(F)c(Nc3ccc4c(c3)OCCCO4)n2)cc1 [Compound R935183]

Row | IC50 [µM] | Structure (SMILES)
39 | 1.73 | NC(=O)CNc1cccc(Nc2ncc(F)c(Nc3ccc4c(c3)OCCO4)n2)c1 [Compound R950192]
40 | 3.43 | CNC(=O)COc1cccc(Nc2ncc(F)c(Nc3ccc4c(c3)C=CCC4)n2)c1 [Compound R926944]
41 | 0.88 | CNC(=O)CCn1ncc2cc(Nc3ncc(F)c(Nc4ccc(OC(C)C)cc4)n3)ccc21 [Compound R935310]
42 | 4.4 | CC(C)c1cccc(Nc2nc(Nc3ccc4oc(CO)cc4c3)ncc2F)c1 [Compound R940286]
43 | 2.09 | CC1(C)Oc2ccc(Nc3nc(Nc4cccc(O)c4)ncc3F)cc2NC1=O [Compound R940346]
44 | 6.27 | Nc1ccc(Nc2ncc(F)c(Nc3ccc(N)cc3)n2)cc1 [Compound R950121]
45 | 3.66 | CNC(=O)COc1cccc(Nc2ncc(F)c(Nc3cccc(N(CCO)CCO)c3)n2)c1 [Compound R950266]
46 | > 10 | Fc1cnc(Nc2ccc3cn[nH]c3c2)nc1Nc1ccc(OC(F)(F)F)c(Cl)c1 [Compound R935368]
47 | > 10 | O=C(O)Cc1cccc(Nc2ncc(F)c(Nc3cccc(CC(=O)O)c3)n2)c1 [Compound R935117]
48 | 5.9 | Nc1cccc(Nc2nc(Nc3cccc(Nc4ncc(F)c(Nc5cccc(N)c5)n4)c3)ncc2F)c1 [Compound R950137]
49 | 1.99 | CNC(=O)COc1cccc(Nc2ncc(F)c(Nc3cccc(NC)c3)n2)c1 [Compound R950267]
50 | 0.125 | CNC(=O)COc1cccc(Nc2ncc(F)c(Nc3ccc4c(c3)C(N)CCO4)n2)c1 (stereo not shown) [Compound R950368]
51 | > 10 | COC(=O)c1cc2cc(Nc3ncc(F)c(Nc4ccc5cnn(CCC(=O)O)c5c4)n3)ccc2o1 [Compound R935296]
52 | 3.93 | CC(C)(CO)c1ccc(Nc2ncc(F)c(Nc3cccc(O)c3)n2)cc1 [Compound R935171]
53 | 2.18 | Fc1cnc(Nc2ccc3c(c2)OCCO3)nc1Nc1ccc2cn[nH]c2c1 [Compound R935261]
54 | 2.94 | Oc1cccc(Nc2nc(Nc3ccc4cn[nH]c4c3)ncc2F)c1 [Compound R935191]
55 | > 10 | CSc1nc2ccc(Nc3ncc(F)c(Nc4ccc5nc(SC)sc5c4)n3)cc2s1 [Compound R950202]
56 | 2.77 | CN1CCN(C(=O)CNc2cccc(Nc3ncc(F)c(Nc4cccc(O)c4)n3)c2)CC1 [Compound R950223]

same assay, conditions: Homo sapiens, Jurkat

Row | Structure (SMILES) | IC50 [µM]
57 | CCOC(=O)Nc1ccc(Nc2ncc(F)c(Nc3ccc(NC(=O)OCC)c(O)c3)n2)cc1O [Compound R926340] | > 10
58 | Fc1ccc(Nc2ncc(F)c(Nc3ccc4c(c3)OCCO4)n2)cc1Cl [Compound R926218] | > 10
59 | CC(C)Oc1ccc(Nc2ncc(F)c(Nc3ccc(OC(C)C)cc3)n2)cc1 [Compound R926701] | > 10
60 | CCOC(=O)c1cc2cc(Nc3ncc(F)c(Nc4ccc5c(c4)OCCO5)n3)ccc2[nH]1 [Compound R926476] | 3.9
61 | Nc1nc(N(c2ccc(CO)cc2)c2ccc3c(c2)OCCO3)ncc1F [Compound R925760] | 20.2
62 | Cc1onc(-c2ccccc2)c1Nc1ncc(F)c(Nc2ccc3c(c2)OCCO3)n1 [Compound R926743] | > 10
63 | COC(=O)C(CC(C)C)Nc1ncc(C#N)c(NC(CC(C)C)C(=O)OC)n1 (stereo not shown) [Compound R925815] | > 10
64 | CCOC(=O)c1cc2cc(Nc3ncc(F)c(Nc4cccc(O)c4)n3)ccc2[nH]1 [Compound R926615] | 1.87
65 | Oc1ccc(Nc2ncc(F)c(Nc3ccc(O)c(Cl)c3)n2)cc1Cl [Compound R926675] | 2.37
66 | Oc1cccc(Nc2nc(Nc3ccc4c(c3)CCO4)ncc2F)c1 [Compound R909250] | > 10
67 | N#Cc1cnc(Nc2ccc3c(c2)OCCO3)nc1Nc1ccc2c(c1)OCCO2 [Compound R925773] | 14.4

Further lines, results first:

Row | IC50 [µM] | Structure (SMILES)
68 | > 10 | Nc1c(F)ccc(Nc2ncc(F)c(Nc3ccc(F)c(N)c3F)n2)c1F [Compound R950138]
69 | > 10 | Cc1cc(CNc2ncc(F)c(Nc3cccc(O)c3)n2)c(C)o1 [Compound R945162]
70 | > 10 | COC(=O)c1cc(Nc2ncc(F)c(Nc3cccc(O)c3)n2)cc(C(F)(F)F)c1 [Compound R926863]
71 | > 10 | CCOC(=O)C(C)(C)c1ccc(Nc2nc(Nc3ccc4c(c3)OCCO4)ncc2F)cc1 [Compound R935172]
72 | > 10 | CC(C)Nc1cccc(Nc2ncc(F)c(Nc3cccc(NC(C)C)c3)n2)c1 [Compound R950166]
73 | > 10 | COC(=O)c1cc2cc(Nc3ncc(F)c(Nc4cccc(C(C)(C)C)c4)n3)ccc2o1 [Compound R940281]
74 | > 10 | O=[N+]([O-])c1cnc(Nc2ccc3c(c2)OCCO3)nc1Nc1ccc2c(c1)OCCO2 [Compound R940095]
75 | > 10 | CC(C)(C)c1cccc(Nc2ncc(F)c(Nc3cccc(O)c3)n2)c1 [Compound R940257]
76 | 18.5 | Oc1cccc(Nc2ncc(F)c(Nc3ccc4c(c3)C=CCC4)n2)c1 [Compound R926943]
